Measured values published in patent publication US4454123A, “O-xylopyranoside series compounds and methods of use” (Seikagaku Kogyo Co. Ltd., priority 1980, dated 1984).
Where two headings read alike, the source gives them in different places.

Tests used:
[1] = test system: Sarcoma-180; assay: Activity against a transplantable cancer, Sarcoma-180 (Test Example 7); type: in vivo, ICR-JCL mice; details: 100 mg/kg ip once a day for 10 days; for inhibition in vivo at 100 mg/kg: Mus musculus, Sarcoma-180, ip, 240 h, read-out: I.R. (inhibition ratio, Sarcoma-180 tumor weight)
Experimental: Sarcoma-180 cells (1×10^6 cells) were inoculated subcutaneously into the back skin of each of ICR-JCL mice.
Chemotherapy was given intraperitoneally 24 hrs. after inoculation and performed once a day for 10 days. Each specimen to be administered was prepared by dissolving or suspending 30 mg of each compound according to this invention in 1 ml of a physiological saline or in 1 ml of a 0.2% solution of carboxymethylcellulose in a physiological saline, respectively.
All the solutions and the suspensions thus prepared were injected at a volume of 0.1 ml as a single dose (100 mg/Kg).
The inhibition ratio (%) was calculated according to the following equation: […]
wherein T represents the mean weight of the tumor Sarcoma-180 in a tested group of mice; and C represents the mean weight of the tumor in a control group of mice.

[2] = test system: ddY mice; assay: Acute toxicity (LD50) by oral or intraperitoneal administration to ddY mice (Test Example 6); type: in vivo; details: 7 days, 10080 min; for LD50 (ip): intraperitoneal
Experimental: (§1) The acute toxicity of the compound according to this invention was determined by forced oral or intraperitoneal administration thereof to ddY mice.
(§2) To prepare each specimen to be administered, a predetermined amount of each compound shown in Table 5 was dissolved in a physiological saline or suspended in a 0.2% solution of carboxymethylcellulose in a physiological saline. Each specimen was administered orally to a ddY mouse via its stomach tube or injected intraperitoneally.

[3] = test system: platelet agglutination caused by thrombin; assay: Inhibitory effect against platelet agglutinating agent thrombin (Test Example 8); type: cell-based, human; parameters: key: The degree of agglutination was expressed by using marks +, ++, +++, etc.; The degree of agglutination was expressed by using marks +, ++, +++, etc.; The degree of agglutination was expressed by using marks +, ++, +++, etc; details: specimen 2 mM, dissolved in 50% ethanol
Experimental: (§3) Inhibitory activities of each compound of this invention against platelet agglutinating agents (ADP, collagen, thrombin, ristocetin and epinephrine)were investigated according to the method using a microscope.
(§4) PRP was prepared by mixing a 3.8% aqueous sodium citrate and a human vein blood at a ratio of 1:9; centrifuging the mixture at 700 r.p.m. for 10 minutes; and then collecting the supernatant.
(§5) The residue remaining after collection of the PRP mentioned above was subjected further to centrifugation at 3000 r.p.m. for 10 minutes and then collected the supernatant to obtain PPP.
(§6) Following solutions were employed for the test.
c. thrombin (0.25 U/ml solution)
(§7) In each well of a Multidish (Nunc Multidish having 24 wells) was placed 0.2 ml of PRP (containing 3.0×10^5 platelet cells/cmm).
(§8) Thereto was added 50 μl of a specimen solution containing 10 mM of the compound according to this invention, and the mixture was stirred at 37° C. for 2 minutes. To the mixture was added 10 μl of each solution of the platelet agglutinating agent mentioned above, and the result was observed by using a microscope 1 minute and then 5 minutes thereafter.
(§9) The degree of agglutination was expressed by using marks +, ++, +++, etc., according to the method by Fukutake et al [Katsuhiro Fukutake, Iwao Yamaguchi: Blood and Blood Vessel, Volume 6, No. 7, pp. 55-60 (1975)].

[4] = test system: platelet agglutination caused by ADP; assay: Inhibitory effect against platelet agglutinating agent ADP (Test Example 8); type: cell-based, human; parameters: key: The degree of agglutination was expressed by using marks +, ++, +++, etc.; The degree of agglutination was expressed by using marks +, ++, +++, etc.; The degree of agglutination was expressed by using marks +, ++, +++, etc; details: specimen 2 mM, dissolved in 50% ethanol
Experimental: as §3, §4, §5, §6
a. ADP (2 μM/ml solution)
as §7, §8, §9

[5] = Acute toxicity (LD50) by oral or intraperitoneal administration to ddY mice (Test Example 6); type: in vivo; details: mouse, in vivo, 7 days
Experimental: as §1, §2

[6] = test system: platelet agglutination caused by collagen; assay: Inhibitory effect against platelet agglutinating agent collagen (Test Example 8); type: cell-based, human; parameters: key: The degree of agglutination was expressed by using marks +, ++, +++, etc.; The degree of agglutination was expressed by using marks +, ++, +++, etc.; The degree of agglutination was expressed by using marks +, ++, +++, etc; details: specimen 2 mM, dissolved in 50% ethanol
Experimental: as §3, §4, §5, §6
b. collagen (0.25 μM/ml solution)
as §7, §8, §9

[7] = test system: platelet agglutination caused by ristocetin; assay: Inhibitory effect against platelet agglutinating agent ristocetin (Test Example 8); type: cell-based, human; parameters: key: The degree of agglutination was expressed by using marks +, ++, +++, etc.; The degree of agglutination was expressed by using marks +, ++, +++, etc.; The degree of agglutination was expressed by using marks +, ++, +++, etc; details: specimen 2 mM, dissolved in 50% ethanol
Experimental: as §3, §4, §5, §6
d. ristocetin (1.5 mg/ml solution)
as §7, §8, §9

[8] = test system: platelet agglutination caused by epinephrine; assay: Inhibitory effect against platelet agglutinating agent epinephrine (Test Example 8); type: cell-based, human; parameters: key: The degree of agglutination was expressed by using marks +, ++, +++, etc.; The degree of agglutination was expressed by using marks +, ++, +++, etc.; The degree of agglutination was expressed by using marks +, ++, +++, etc; details: specimen 2 mM, dissolved in 50% ethanol
Experimental: as §3, §4, §5, §6
e. epinephrine (2 μg/ml solution)
as §7, §8, §9

[9] = ip, intraperitoneal, read-out: LD50 (ip)

Compound	I.R. (inhibition ratio, Sarcoma-180 tumor weight) [1] [%]	LD50 (ip) [2] [mg/kg body weight]	LD50 (po) [2] [mg/kg body weight]	State of agglutination, 5 min. [3]	State of agglutination, 5 min. [4]	inhibition in vivo at 100 mg/kg [1] [%]	LD50 at 168 h [5, 9] [mg/kg]	LD50 at 168 h ([5]; po, read-out: LD50 (po)) [mg/kg]	State of agglutination, 5 min. [6]	State of agglutination, 5 min. [7]	State of agglutination, 5 min. [8]
O=C(O)c1ccc(O[C@@H]2OC[C@@H](O)[C@H](O)[C@H]2O)cc1 [Para(sodiumoxycarbonyl)phenyl-β-D-xylopyranoside]	39.7	2800	8200								
CCCCCCCCCCCCCCCCCCCCS[C@@H]1OC[C@@H](O)[C@H](O)[C@H]1O [n-Eicosyl 1-thio-β-D-xylopyranoside]				+	+	32.2	400	2300	+	+	
CCCCCCCCCCCCS[C@@H]1OC[C@@H](O)[C@H](O)[C@H]1O [n-Lauryl 1-thio-β-D-xylopyranoside]				+	+	42.3	407	2300	+	+	
CCCCCCCCCCS[C@@H]1OC[C@@H](O)[C@H](O)[C@H]1O [n-Decyl 1-thio-β-D-xylopyranoside]				+	+	40	450	2500	+	+	+
CCCCCCCCCCCC[C@@H]1OC[C@@H](O)[C@H](O)[C@H]1O [C-n-Lauryl-β-D-xylopyranoside]				+		83.4	620	2800	+	+	
CCCCCCCCC[C@@H]1OC[C@@H](O)[C@H](O)[C@H]1O [C-n-Nonyl-β-D-xylopyranoside]				+	+	73.1	920	3000	+	+	
CCCCCCCCCCCCCCCCCCCC[C@@H]1OC[C@@H](O)[C@H](O)[C@H]1O [C-n-Eicosyl-β-D-xylopyranoside]				+	+	44.3	430	2620	+	+	
O=C(O)c1ccc(C[C@@H]2OC[C@@H](O)[C@H](O)[C@H]2O)cc1 [C-para(sodiumoxycarbonyl)benzyl-β-D-xylopyranoside]	53.2	3000	9300								
CCCCCCCCCCCCCCCCCC[C@@H]1OC[C@@H](O)[C@H](O)[C@H]1O [C-n-Stearyl-β-D-xylopyranoside]				+	+	54.6	480	2500	+	+	
CCCCCCCCCCCCCCCCS[C@@H]1OC[C@@H](O)[C@H](O)[C@H]1O [n-Cetyl 1-thio-β-D-xylopyranoside]				+	+	34.7	425	2280	+	+	
O=C(O)c1ccc(S[C@@H]2OC[C@@H](O)[C@H](O)[C@H]2O)cc1 [Para(sodiumoxycarbonyl)phenyl 1-thio-β-D-xylopyranoside]	49.6	2600	7000								
